Measured values as given in US11713338B2, “Cyclic peptides multimers targeting α-4-β-7 integrin” (priority 2016, dated 2023).

Target: T1, recombinant integrin α4β1 (Homo sapiens, UniProt P05556+P13612)
T1 construct: purchased R&D Systems 5397-A3-050
Assay: Integrin α4β1—VCAM-1 competition ELISA
Format: binding
Conditions: for ELISA Assay Ratio β1/β7: ratio of ELISA IC50s, α4β1 over α4β7; for IC50: read-out: ELISA α4β1 Assay IC50
Outline: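 Detection of bound ligand used HRP-conjugated anti-human IgG Fc, 1 h with agitation at room temperature. This followed a 2 h room-temperature, 300 rpm equilibration of compound in the coated wells. Washes were done in 50 mM Tris, 100 mM NaCl, 1 mM MnCl2, 0.05% Tween.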

T1 sequence (P13612 34-970 limits assumed): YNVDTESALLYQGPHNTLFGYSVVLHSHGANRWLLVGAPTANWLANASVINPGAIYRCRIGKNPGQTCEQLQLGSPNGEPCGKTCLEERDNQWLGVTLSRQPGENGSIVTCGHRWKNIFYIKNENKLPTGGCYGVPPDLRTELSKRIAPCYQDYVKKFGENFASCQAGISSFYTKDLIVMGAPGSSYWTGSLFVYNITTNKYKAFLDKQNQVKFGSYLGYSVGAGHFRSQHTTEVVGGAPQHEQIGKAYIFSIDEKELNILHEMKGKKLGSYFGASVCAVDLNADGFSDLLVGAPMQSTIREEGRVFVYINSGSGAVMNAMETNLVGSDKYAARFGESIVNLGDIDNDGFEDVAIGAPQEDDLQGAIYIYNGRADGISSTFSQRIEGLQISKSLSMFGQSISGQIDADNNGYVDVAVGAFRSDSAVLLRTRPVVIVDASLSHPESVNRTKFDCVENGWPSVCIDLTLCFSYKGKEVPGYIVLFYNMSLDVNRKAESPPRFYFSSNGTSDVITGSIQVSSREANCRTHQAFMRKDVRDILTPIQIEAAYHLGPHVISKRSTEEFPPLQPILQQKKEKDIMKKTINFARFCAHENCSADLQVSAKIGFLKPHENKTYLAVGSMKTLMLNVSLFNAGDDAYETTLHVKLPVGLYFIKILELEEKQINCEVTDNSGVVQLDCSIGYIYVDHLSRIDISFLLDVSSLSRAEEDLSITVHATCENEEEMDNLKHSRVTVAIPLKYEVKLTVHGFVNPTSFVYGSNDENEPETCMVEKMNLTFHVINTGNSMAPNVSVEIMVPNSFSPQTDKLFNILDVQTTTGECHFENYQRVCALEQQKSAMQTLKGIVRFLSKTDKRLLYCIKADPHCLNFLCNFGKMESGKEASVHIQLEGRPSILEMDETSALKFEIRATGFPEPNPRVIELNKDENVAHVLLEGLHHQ
T1 sequence (P05556 21-728 limits assumed): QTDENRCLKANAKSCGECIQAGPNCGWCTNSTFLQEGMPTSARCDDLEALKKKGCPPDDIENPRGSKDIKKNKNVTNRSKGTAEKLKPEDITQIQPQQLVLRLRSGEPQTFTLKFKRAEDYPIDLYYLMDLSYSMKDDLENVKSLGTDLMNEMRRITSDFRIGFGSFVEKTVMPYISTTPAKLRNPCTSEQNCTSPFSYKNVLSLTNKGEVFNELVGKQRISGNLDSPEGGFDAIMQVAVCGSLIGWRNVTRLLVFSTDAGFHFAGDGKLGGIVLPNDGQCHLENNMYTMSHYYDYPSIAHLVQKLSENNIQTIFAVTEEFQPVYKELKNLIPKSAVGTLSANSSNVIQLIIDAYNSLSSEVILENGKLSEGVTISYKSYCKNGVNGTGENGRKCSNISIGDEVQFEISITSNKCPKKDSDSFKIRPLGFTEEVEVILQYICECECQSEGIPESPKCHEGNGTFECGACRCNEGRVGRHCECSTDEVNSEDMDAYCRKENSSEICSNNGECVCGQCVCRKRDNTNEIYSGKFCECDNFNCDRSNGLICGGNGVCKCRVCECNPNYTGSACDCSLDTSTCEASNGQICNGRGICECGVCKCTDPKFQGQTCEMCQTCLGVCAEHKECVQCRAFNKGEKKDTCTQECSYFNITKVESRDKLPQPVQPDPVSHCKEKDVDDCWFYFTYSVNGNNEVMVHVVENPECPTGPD

Compound | ELISA Assay Ratio β1/β7 | IC50 [nM]
CC(C)C[C@@H]1NC(=O)C[C@H](CCCCN)N(C)C(=O)[C@H](CCCCNC(=O)c2ccccc2-c2ccccc2C(=O)NCCCC[C@@H]2NC(=O)[C@@H]3CCCN3[C@H](C(=O)NC(C)(C)C)[C@H](C)NC(=O)[C@H]([C@@H](C)O)NC(=O)[C@H](CC(=O)O)NC(=O)[C@H](CC(C)C)NC(=O)C[C@H](CCCCN)N(C)C2=O)NC(=O)[C@@H]2CCCN2[C@H](C(=O)NC(C)(C)C)[C@H](C)NC(=O)[C@H]([C@@H](C)O)NC(=O)[C@H](CC(=O)O)NC1=O [Compound 535] | 0.9 | 9.7
CC(C)C[C@@H]1NC(=O)C[C@H](CCCCN)N(C)C(=O)[C@H](CCCCNC(=O)CCOCCOCCOCCOCCOCCOCCOCCC(=O)NCCCC[C@@H]2NC(=O)[C@@H]3CCCN3[C@H](C(=O)NC(C)(C)C)[C@H](C)NC(=O)[C@H]([C@@H](C)O)NC(=O)[C@H](CC(=O)O)NC(=O)[C@H](CC(C)C)NC(=O)C[C@H](CCCCN)N(C)C2=O)NC(=O)[C@@H]2CCCN2[C@H](C(=O)NC(C)(C)C)[C@H](C)NC(=O)[C@H]([C@@H](C)O)NC(=O)[C@H](CC(=O)O)NC1=O [Compound 536] | 0.9 | 8.9
CC(C)C[C@@H]1NC(=O)C[C@H](CCCCN)N(C)C(=O)[C@H](CCCCNC(=O)c2cc(C(=O)NCCCC[C@@H]3NC(=O)[C@@H]4CCCN4[C@H](C(=O)NC(C)(C)C)[C@H](C)NC(=O)[C@H]([C@@H](C)O)NC(=O)[C@H](CC(=O)O)NC(=O)[C@H](CC(C)C)NC(=O)C[C@H](CCCCN)N(C)C3=O)cc(C(=O)NCCCC[C@@H]3NC(=O)[C@@H]4CCCN4[C@H](C(=O)NC(C)(C)C)[C@H](C)NC(=O)[C@H]([C@@H](C)O)NC(=O)[C@H](CC(=O)O)NC(=O)[C@H](CC(C)C)NC(=O)C[C@H](CCCCN)N(C)C3=O)c2)NC(=O)[C@@H]2CCCN2[C@H](C(=O)NC(C)(C)C)[C@H](C)NC(=O)[C@H]([C@@H](C)O)NC(=O)[C@H](CC(=O)O)NC1=O [Compound 538] | 1.3 | 13
